Experimental data taken from patent US9416141B2 (University of Washington through its Center for …, priority 2012, dated 2016).
Counter-ions that a name gives are not always drawn.

Test system: hair cells
Assay: Hair cell toxicity assay in zebrafish (neomycin-induced hair cell death, DASPEI staining of neuromasts)
Type: in vivo
Conditions: Danio rerio; for Emax at 2.8 µM: maximum observed @ 2.8 μM test compound; for EC50: zebrafish larvae 5-7 dpf, 1 h pre-treatment, then 200 micromolar neomycin + test compound 30 min, read-out: HC50 (concentration that would produce 50% hair cell survival); for Emax at 25 µM: maximum observed @ 25 μM test compound; for Emax at 8.3 µM: maximum observed @ 8.3 μM test compound
Summary of the method: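 Hair cell survival, as % of untreated controls, came from DASPEI scoring (0-2 each, ten neuromasts on one side) in 5-7 dpf larvae. These had 1 h compound pre-exposure (0.010-25 μM), then 200 μM neomycin with compound for 30 min. HCmax is peak protection; HC50 interpolated between flanking concentrations only when ≥50% survive.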

[1] = 200 micromolar neomycin, read-out: Max HC Protection (HCmax, % hair cell survival)

| SMILES | Emax at 2.8 µM [1] [%] | EC50 [nM] | Emax at 25 µM [1] [%] | other results |
| --- | --- | --- | --- | --- |
| CC(C)(C)OC(=O)CCCCC[N+]1(C)CCc2c(sc(NC(=O)Nc3ccc(Cl)cc3)c2C(N)=O)C1 (stereo not drawn) [Example 156, 6-(6-tert-Butoxy-6-oxohexyl)-3-carbamoyl-2-[3-(4-chlorophenyl)ureido]-6-methyl-4,5,6,7-tetrahydrothieno[2,3-c]pyridin-6-ium iodide] | 96 | < 1000 |  |  |
| CC[N+]1(C)CCc2c(sc(NC(=O)N(C)c3ccc(Cl)cc3)c2C(N)=O)C1 (stereo not drawn) [Example 185, 3-Carbamoyl-2-[3-(4-chlorophenyl)-3-methylureido]-6-ethyl-6-methyl-4,5,6,7-tetrahydrothieno[2,3-c]pyridin-6-ium chloride] | 16 |  |  |  |
| NC(=O)c1c(NC(=O)Nc2ccc(Cl)cc2)sc2c1CCN(CCCNC(=O)CCc1ccccc1)C2 [Example 210, 2-{[(4-chlorophenyl)carbamoyl]amino}-6-[3-(3-phenylpropanamido)propyl]-4H,5H,6H,7H-thieno[2,3-c]pyridine-3-carboxamide] |  | < 1000 | 99 |  |
| CCN1CCc2c(sc(N(CC)C(=O)Nc3ccc(Cl)cc3)c2C(N)=O)C1 [Example 113, 2-[3-(4-chlorophenyl)-1-ethylureido]-6-ethyl-4,5,6,7-tetrahydrothieno[2,3-c]pyridine-3-carboxamide hydrochloride] | 12 |  |  |  |
| CN(C)C(=O)CCN1CCc2c(sc(NC(=O)Nc3ccc(Cl)cc3)c2C(N)=O)C1 [Example 53, 2-[3-(4-Chlorophenyl)ureido]-6-[3-(dimethylamino)-3-oxopropyl]-4,5,6,7-tetrahydrothieno[2,3-c]pyridine-3-carboxamide hydrochloride] |  | 1000 to 10000 | 103 |  |
| CCN1CCCc2c(sc(NC(=O)Nc3ccc(Cl)cc3)c2C(N)=O)C1 [Example 114, 2-[3-(4-chlorophenyl)ureido)-7-ethyl-5,6,7,8-tetrahydro-4H-thieno[2,3-c]azepine-3-carboxamide hydrochloride] |  | 1000 to 10000 | 97 |  |
| CN1C2CCC1c1sc(NC(=O)Nc3ccc(Cl)cc3)c(C(N)=O)c1C2 (racemic) [Example 125, (+/−)-2-[3-(4-chlorophenyl)ureido)-9-methyl-5,6,7,8-tetrahydro-4H-5,8-epiminocyclohepta[b]thiophene-3-carboxamide hydrochloride] |  | < 1000 |  | Emax at 8.3 µM [1]: 99% |
| CC1(CN2CCc3c(sc(NC(=O)Nc4ccc(Cl)cc4)c3C(N)=O)C2)CCC1 [Example 24, 2-[3-(4-Chlorophenyl)ureido]-6-[(1-methylcyclobutyl)methyl]-4,5,6,7-tetrahydrothieno[2,3-c]pyridine-3-carboxamide trifluoroacetate] | 54 | 1000 to 10000 |  |  |
| CCN1CCc2c(sc(NC(=O)Nc3ccc(Cl)cc3)c2-c2nc(C)no2)C1 [Example 103, 1-(4-chlorophenyl)-3-[6-ethyl-3-(3-methyl-1,2,4-oxadiazol-5-yl)-4,5,6,7-tetrahydrothieno[2,3-c]pyridin-2-yl]urea hydrochloride] |  |  |  | Emax at 0.9 µM (maximum observed @ 0.9 μM test compound, 200 micromolar neomycin, read-out: Max HC Protection (HCmax, % hair cell survival)): 12% |
| COCCC[N+]1(C)CCc2c(sc(NC(=O)Nc3ccc(Cl)cc3)c2C(N)=O)C1 (stereo not drawn) [Example 141, 3-Carbamoyl-2-[3-(4-chlorophenyl)ureido]-6-(3-methoxypropyl)-6-methyl-4,5,6,7-tetrahydrothieno[2,3-c]pyridin-6-ium iodide] | 77 | < 1000 |  |  |
| CCN1CCc2c(sc(NC(=O)Nc3cnc4ccccc4c3)c2C(N)=O)C1 [Example 78, 6-Ethyl-2-[3-(quinolin-3-yl)ureido]-4,5,6,7-tetrahydrothieno[2,3-c]pyridine-3-carboxamide dihydrochloride] |  | > 10000 | 52 |  |
| CCN1CCc2c(sc(NC(=O)N(C)c3ccc(Cl)cc3)c2C(N)=O)C1 [Example 106, 2-[3-(4-chlorophenyl)-3-methylureido]-6-ethyl-4,5,6,7-tetrahydrothieno[2,3-c]pyridine-3-carboxamide hydrochloride] |  |  | 23 |  |
| CCN1CCc2c(sc(NC(=O)Nc3ccccc3Cl)c2C(N)=O)C1 [Example 65, 2-[3-(2-Chlorophenyl)ureido]-6-ethyl-4,5,6,7-tetrahydrothieno[2,3-c]pyridine-3-carboxamide hydrochloride] | 17 |  |  |  |
| CCN1CCc2c(sc(NC(N)=O)c2C(N)=O)C1 [Example 107, 6-ethyl-2-ureido-4,5,6,7-tetrahydrothieno[2,3-c]pyridine-3-carboxamide hydrochloride] | 36 |  |  |  |
| CC(C)(C)OC(=O)NCCN1CCc2c(sc(NC(=O)Nc3ccc(Cl)cc3)c2C(N)=O)C1 [Example 10, tert-Butyl 2-{3-carbamoyl-2-[3-(4-chlorophenyl)ureido]-4,5-dihydrothieno[2,3-c]pyridin-6(7H)-yl}ethylcarbamate] |  |  |  | Emax at 8.3 µM [1]: 13% |
| CC(C)C(C)[N+]1(C)CCc2c(sc(NC(=O)Nc3ccc(Cl)cc3)c2C(N)=O)C1 (racemic) [Example 204, (+/−)-3-Carbamoyl-2-[3-(4-chlorophenyl)ureido]-6-methyl-6-(3-methylbutan-2-yl)-4,5,6,7-tetrahydrothieno[2,3-c]pyridin-6-ium chloride] |  |  |  | Emax at 8.3 µM [1]: 77% |
| NC(=O)c1c(NC(=O)Nc2ccc(Cl)cc2)sc2c1CCN(CC(F)(F)F)C2 [Example 89, 2-[3-(4-Chlorophenyl)ureido]-6-(2,2,2-trifluoroethyl)-4,5,6,7-tetrahydrothieno[2,3-c]pyridine-3-carboxamide] |  |  |  | Emax at 8.3 µM [1]: 18% |
| CCN1CCc2c(sc(NC(=O)Nc3cncc(Cl)c3)c2C(N)=O)C1 [Example 77, 2-[3-(5-Chloropyridin-3-yl)ureido]-6-ethyl-4,5,6,7-tetrahydrothieno[2,3-c]pyridine-3-carboxamide dihydrochloride] |  |  | 45 |  |
| CCN1CCc2c(sc(NC(=O)Nc3ccc4cc(F)ccc4c3)c2C(N)=O)C1 [Example 93, 6-ethyl-2-[3-(6-fluoronaphthalen-2-yl)ureido]-4,5,6,7-tetrahydrothieno[2,3-c]pyridine-3-carboxamide hydrochloride] |  | 1000 to 10000 | 97 |  |
| CC(C)(C)C[N+]1(C)CCc2c(sc(NC(=O)Nc3ccc4ccccc4c3)c2C(N)=O)C1 (stereo not drawn) [Example 193, 3-Carbamoyl-6-methyl-2-(3-naphthalen-2-ylureido)-6-neopentyl-4,5,6,7-tetrahydrothieno[2,3-c]pyridin-6-ium trifluoroacetate] |  | < 1000 | 98 |  |
| CC(C)CN1CCc2c(sc(NC(=O)Nc3ccc4ccccc4c3)c2C(N)=O)C1 [Example 34, 6-Isobutyl-2-[3-(naphthalen-2-yl)ureido]-4,5,6,7-tetrahydrothieno[2,3-c]pyridine-3-carboxamide hydrochloride] |  | 1000 to 10000 | 87 |  |
| CC(C)(C)C[N+]1(C)CCc2c(sc(NC(=O)Nc3ccc(Cl)c4ccccc34)c2C(N)=O)C1 (stereo not drawn) [Example 183, 3-Carbamoyl-2-[3-(4-chloronaphthalen-1-yl)ureido]-6-methyl-6-neopentyl-4,5,6,7-tetrahydrothieno[2,3-c]pyridin-6-ium chloride] |  | 1000 to 10000 |  | Emax at 8.3 µM [1]: 70% |
| CCN1CCc2c(sc(NC(=O)Nc3ccc(C(=O)c4ccccc4)cc3)c2C(N)=O)C1 [Example 88, 2-[3-(4-Benzoylphenyl)ureido]-6-ethyl-4,5,6,7-tetrahydrothieno[2,3-c]pyridine-3-carboxamide] |  | 1000 to 10000 | 88 |  |
| CC(C)NC(=O)CCCN1CCc2c(sc(NC(=O)Nc3ccc(Cl)cc3)c2C(N)=O)C1 [Example 25, 2-[3-(4-Chlorophenyl)ureido]-6-[4-(isopropylamino)-4-oxobutyl]-4,5,6,7-tetrahydrothieno[2,3-c]pyridine-3-carboxamide hydrochloride] | 57 | 1000 to 10000 |  |  |
| CCN1CCc2c(sc(NC(=O)Nc3cccc4nsnc34)c2C(N)=O)C1 [Example 80, 2-[3-(Benzo[c][1,2,5]thiadiazol-4-yl)ureido]-6-ethyl-4,5,6,7-tetrahydrothieno[2,3-c]pyridine-3-carboxamide hydrochloride] |  |  |  | Emax at 8.3 µM [1]: 36% |
| CCOC(=O)CCN1CCc2c(sc(NC(=O)Nc3ccc(Cl)cc3)c2C(N)=O)C1 [Example 56, Ethyl 3-{3-carbamoyl-2-[3-(4-chlorophenyl)ureido]-4,5-dihydrothieno[2,3-c]pyridin-6(7H)-yl}propanoate hydrochloride] | 48 |  |  |  |
| CC(C)(C)C[N+]1(C)CCc2c(sc(NC(=O)Nc3ccc(Cl)cc3)c2C(N)=O)C1 (stereo not drawn) [Example 171, 3-Carbamoyl-2-[3-(4-chlorophenyl)ureido]-6-methyl-6-neopentyl-4,5,6,7-tetrahydrothieno[2,3-c]pyridin-6-ium iodide] | 92 | < 1000 |  |  |
| NC(=O)c1c(NC(=O)Nc2ccc(Cl)cc2)sc2c1CCN(CC1CCCCC1)C2 [Example 16, 2-[3-(4-Chlorophenyl)ureido]-6-(cyclohexylmethyl)-4,5,6,7-tetrahydrothieno[23-c]pyridine-3-carboxamide hydrochloride] | 57 | 1000 to 10000 |  |  |
| CC(C)OC(=O)CCN1CCc2c(sc(NC(=O)Nc3ccc(Cl)cc3)c2C(N)=O)C1 [Example 54, Isopropyl 3-{3-carbamoyl-2-[3-(4-chlorophenyl)ureido]-4,5-dihydrothieno[2,3-c]pyridin-6(7H)-yl}propanoate hydrochloride] |  | 1000 to 10000 | 58 |  |
| CC[N+]1(C)CCc2c(ccc(NC(=O)Nc3ccc(Cl)cc3)c2C(N)=O)C1 (stereo not drawn) [Example 172, 5-Carbamoyl-6-[3-(4-chlorophenyl)ureido]-2-ethyl-2-methyl-1,2,3,4-tetrahydroisoquinolin-2-ium iodide] |  | > 10000 | 66 |  |
